Measured values taken from patent EP4722207A1, “OXOISOINDOLINYL-SUBSTITUTED TETRAHYDROPYRIMIDINEDIONE DERIVATIVE AND USE THEREOF” (Gluetacs Therapeutics (Shanghai) Co., Ltd., priority 2023, dated 2024).

Experiments:
Type in all cases: cell-based
Conditions in all cases: compounds at 50 nM and 500 nM, 24 hours
[1] = biological target: T1, WEE1 (Homo sapiens, UniProt P30291+Q96SW2); assay: Western-blot assay, substrate protein degradation in hPBMCs: WEE1
T1 construct: effects of the compounds of the present disclosure on the expression of target proteins in cells; endogenous in cells; host or cells: human PBMCs (hPBMCs)
T1 sequence (P30291 whole entry): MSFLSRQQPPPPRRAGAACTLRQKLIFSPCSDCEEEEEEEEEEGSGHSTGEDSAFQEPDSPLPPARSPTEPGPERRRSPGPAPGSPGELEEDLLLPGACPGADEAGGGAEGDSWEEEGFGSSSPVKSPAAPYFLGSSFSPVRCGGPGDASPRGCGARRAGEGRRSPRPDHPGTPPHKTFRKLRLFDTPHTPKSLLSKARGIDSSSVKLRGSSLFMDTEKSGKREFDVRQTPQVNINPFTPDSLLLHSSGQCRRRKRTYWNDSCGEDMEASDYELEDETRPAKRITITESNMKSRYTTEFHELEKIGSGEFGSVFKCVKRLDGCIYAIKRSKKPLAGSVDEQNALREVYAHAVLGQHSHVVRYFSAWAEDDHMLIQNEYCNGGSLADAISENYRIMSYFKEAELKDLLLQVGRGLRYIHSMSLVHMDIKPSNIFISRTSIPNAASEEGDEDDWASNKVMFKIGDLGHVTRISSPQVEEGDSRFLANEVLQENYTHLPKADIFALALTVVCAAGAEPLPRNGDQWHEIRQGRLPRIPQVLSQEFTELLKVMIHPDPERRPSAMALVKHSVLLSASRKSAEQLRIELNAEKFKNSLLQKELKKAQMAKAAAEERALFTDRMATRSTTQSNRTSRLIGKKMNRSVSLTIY
T1 sequence (Q96SW2 whole entry): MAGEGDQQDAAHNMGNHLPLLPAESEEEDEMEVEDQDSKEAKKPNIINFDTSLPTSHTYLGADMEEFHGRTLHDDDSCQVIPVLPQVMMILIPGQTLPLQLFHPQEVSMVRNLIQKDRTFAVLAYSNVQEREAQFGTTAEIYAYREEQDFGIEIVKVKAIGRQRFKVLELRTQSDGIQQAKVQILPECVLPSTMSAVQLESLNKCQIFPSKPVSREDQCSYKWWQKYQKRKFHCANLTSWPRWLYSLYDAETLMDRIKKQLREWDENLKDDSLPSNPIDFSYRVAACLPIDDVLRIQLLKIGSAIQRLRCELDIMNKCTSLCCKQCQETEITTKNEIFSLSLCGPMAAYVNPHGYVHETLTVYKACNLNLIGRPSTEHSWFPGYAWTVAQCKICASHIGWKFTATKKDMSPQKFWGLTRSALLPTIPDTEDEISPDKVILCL
T1 sequence (Q16531 whole entry partner): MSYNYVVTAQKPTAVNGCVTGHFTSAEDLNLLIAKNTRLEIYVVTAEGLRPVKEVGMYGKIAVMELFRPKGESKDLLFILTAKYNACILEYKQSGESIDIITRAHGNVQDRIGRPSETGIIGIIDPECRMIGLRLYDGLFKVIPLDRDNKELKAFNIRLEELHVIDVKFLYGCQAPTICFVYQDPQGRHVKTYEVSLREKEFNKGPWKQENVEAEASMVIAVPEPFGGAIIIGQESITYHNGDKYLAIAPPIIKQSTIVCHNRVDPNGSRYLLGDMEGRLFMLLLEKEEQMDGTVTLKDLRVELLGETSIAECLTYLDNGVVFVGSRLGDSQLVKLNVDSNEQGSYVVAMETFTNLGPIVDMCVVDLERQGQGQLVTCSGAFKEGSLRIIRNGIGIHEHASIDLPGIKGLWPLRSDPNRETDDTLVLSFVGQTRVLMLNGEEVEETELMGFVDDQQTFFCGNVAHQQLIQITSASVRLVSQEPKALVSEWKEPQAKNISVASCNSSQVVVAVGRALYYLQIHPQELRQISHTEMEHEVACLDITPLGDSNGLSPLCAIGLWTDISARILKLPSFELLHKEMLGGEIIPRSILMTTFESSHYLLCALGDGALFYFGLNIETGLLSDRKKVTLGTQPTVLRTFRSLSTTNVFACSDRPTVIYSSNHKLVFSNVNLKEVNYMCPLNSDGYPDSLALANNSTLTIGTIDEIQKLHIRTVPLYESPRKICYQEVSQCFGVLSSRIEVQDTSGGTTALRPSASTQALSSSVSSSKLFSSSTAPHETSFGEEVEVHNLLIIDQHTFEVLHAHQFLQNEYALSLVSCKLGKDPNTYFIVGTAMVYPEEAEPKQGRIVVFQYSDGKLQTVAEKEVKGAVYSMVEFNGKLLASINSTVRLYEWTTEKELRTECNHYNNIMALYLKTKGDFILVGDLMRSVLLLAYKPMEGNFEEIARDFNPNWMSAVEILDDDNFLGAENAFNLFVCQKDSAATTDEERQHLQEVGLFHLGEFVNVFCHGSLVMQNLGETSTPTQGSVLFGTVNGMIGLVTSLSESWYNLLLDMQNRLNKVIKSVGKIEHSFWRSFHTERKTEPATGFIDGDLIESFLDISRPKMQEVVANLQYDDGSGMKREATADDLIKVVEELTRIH

[2] = biological target: T2, IKZF1 (Homo sapiens, UniProt Q13422+Q96SW2); assay: Western-blot assay, substrate protein degradation in hPBMCs: IKZF1
T2 construct: effects of the compounds of the present disclosure on the expression of target proteins in cells; endogenous in cells; host or cells: human PBMCs (hPBMCs)
T2 sequence (Q13422 whole entry): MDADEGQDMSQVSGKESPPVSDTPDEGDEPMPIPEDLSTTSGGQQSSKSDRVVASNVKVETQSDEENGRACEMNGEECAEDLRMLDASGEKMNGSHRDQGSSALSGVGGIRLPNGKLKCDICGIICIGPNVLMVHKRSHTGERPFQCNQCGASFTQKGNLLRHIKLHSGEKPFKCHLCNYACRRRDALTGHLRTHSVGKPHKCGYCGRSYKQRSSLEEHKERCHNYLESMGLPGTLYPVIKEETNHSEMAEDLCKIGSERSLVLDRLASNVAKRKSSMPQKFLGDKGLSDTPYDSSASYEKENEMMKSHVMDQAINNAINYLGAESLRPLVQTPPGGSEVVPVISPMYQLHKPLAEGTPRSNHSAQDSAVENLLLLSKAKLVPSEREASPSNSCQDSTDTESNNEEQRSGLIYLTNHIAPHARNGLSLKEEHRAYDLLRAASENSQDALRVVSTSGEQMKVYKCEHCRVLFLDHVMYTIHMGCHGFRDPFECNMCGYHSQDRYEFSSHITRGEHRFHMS
T2 sequence (Q96SW2 whole entry): as the sequence (Q96SW2 whole entry) above
T2 sequence (Q16531 whole entry partner): as the sequence (Q16531 whole entry partner) above

[3] = biological target: T3, IKZF2 (Homo sapiens, UniProt Q96SW2+Q9UKS7); assay: Western-blot assay, substrate protein degradation in hPBMCs: IKZF2
T3 construct: effects of the compounds of the present disclosure on the expression of target proteins in cells; endogenous in cells; host or cells: human PBMCs (hPBMCs)
T3 sequence (Q9UKS7 whole entry): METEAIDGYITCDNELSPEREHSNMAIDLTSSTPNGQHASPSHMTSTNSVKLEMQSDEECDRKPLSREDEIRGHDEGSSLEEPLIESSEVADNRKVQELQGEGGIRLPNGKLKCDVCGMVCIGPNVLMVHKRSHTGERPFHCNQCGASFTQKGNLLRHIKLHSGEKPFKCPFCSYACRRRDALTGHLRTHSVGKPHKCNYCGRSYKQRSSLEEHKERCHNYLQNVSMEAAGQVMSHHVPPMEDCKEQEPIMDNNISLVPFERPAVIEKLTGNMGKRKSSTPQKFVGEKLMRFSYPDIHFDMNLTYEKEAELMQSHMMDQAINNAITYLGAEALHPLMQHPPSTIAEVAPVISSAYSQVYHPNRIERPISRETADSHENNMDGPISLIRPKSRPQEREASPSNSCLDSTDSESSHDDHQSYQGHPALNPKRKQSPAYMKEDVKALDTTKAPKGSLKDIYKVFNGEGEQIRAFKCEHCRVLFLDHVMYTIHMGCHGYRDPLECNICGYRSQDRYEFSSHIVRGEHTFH
T3 sequence (Q96SW2 whole entry): as the sequence (Q96SW2 whole entry) above
T3 sequence (Q16531 whole entry partner): as the sequence (Q16531 whole entry partner) above

[4] = biological target: T4, IKZF3 (Homo sapiens, UniProt Q96SW2+Q9UKT9); assay: Western-blot assay, substrate protein degradation in hPBMCs: IKZF3
T4 construct: effects of the compounds of the present disclosure on the expression of target proteins in cells; endogenous in cells; host or cells: human PBMCs (hPBMCs)
T4 sequence (Q9UKT9 whole entry): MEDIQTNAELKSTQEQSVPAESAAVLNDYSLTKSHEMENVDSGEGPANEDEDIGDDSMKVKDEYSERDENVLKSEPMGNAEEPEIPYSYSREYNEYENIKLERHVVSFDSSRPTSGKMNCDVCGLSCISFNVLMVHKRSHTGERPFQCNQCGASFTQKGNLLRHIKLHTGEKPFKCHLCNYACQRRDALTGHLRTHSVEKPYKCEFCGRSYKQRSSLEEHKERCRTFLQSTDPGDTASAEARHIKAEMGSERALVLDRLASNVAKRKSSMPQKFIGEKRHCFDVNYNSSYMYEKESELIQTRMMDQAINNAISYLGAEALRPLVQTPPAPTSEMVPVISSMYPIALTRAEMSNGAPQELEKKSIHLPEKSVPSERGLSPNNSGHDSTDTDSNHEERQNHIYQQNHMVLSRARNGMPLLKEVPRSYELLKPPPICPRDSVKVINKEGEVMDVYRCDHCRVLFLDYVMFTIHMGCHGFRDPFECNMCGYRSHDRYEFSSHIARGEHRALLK
T4 sequence (Q96SW2 whole entry): as the sequence (Q96SW2 whole entry) above
T4 sequence (Q16531 whole entry partner): as the sequence (Q16531 whole entry partner) above

[5] = biological target: T5, CK1α (Homo sapiens, UniProt P48729+Q96SW2); assay: Western-blot assay, substrate protein degradation in hPBMCs: CK1α
T5 construct: effects of the compounds of the present disclosure on the expression of target proteins in cells; endogenous in cells; host or cells: human PBMCs (hPBMCs)

[6] = biological target: T6, GSPT1 (Homo sapiens, UniProt P15170+Q96SW2); assay: Western-blot assay, substrate protein degradation in hPBMCs: GSPT1
T6 construct: effects of the compounds of the present disclosure on the expression of target proteins in cells; endogenous in cells; host or cells: human PBMCs (hPBMCs)
T6 sequence (P15170 whole entry): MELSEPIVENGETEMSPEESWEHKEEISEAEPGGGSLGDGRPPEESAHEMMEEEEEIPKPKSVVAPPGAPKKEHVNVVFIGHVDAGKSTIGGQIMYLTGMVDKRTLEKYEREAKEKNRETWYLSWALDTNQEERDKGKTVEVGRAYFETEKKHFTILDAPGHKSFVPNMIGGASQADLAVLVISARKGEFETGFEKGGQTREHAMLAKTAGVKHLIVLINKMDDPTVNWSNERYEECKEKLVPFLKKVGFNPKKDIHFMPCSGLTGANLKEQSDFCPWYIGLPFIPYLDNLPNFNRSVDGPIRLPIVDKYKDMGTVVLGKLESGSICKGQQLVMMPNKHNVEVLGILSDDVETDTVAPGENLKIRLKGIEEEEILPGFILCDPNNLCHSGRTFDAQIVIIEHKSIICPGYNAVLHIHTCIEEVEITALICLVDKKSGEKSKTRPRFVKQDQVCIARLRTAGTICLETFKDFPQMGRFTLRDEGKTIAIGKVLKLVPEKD
T6 sequence (Q96SW2 whole entry): as the sequence (Q96SW2 whole entry) above
T6 sequence (Q16531 whole entry partner): as the sequence (Q16531 whole entry partner) above

| Structure (SMILES) | WEE1 substrate protein remaining % [1] | IKZF1 substrate protein remaining % [2] | IKZF2 substrate protein remaining % [3] | IKZF3 substrate protein remaining % [4] | CK1α substrate protein remaining % [5] | GSPT1 substrate protein remaining % [6] |
| --- | --- | --- | --- | --- | --- | --- |
| COc1ccc(N2CCN(Cc3ccc4c(c3)CN(N3CCC(=O)NC3=O)C4=O)CC2)cc1 [GT-06767, 1-(5-((4-(4-methoxyphenyl)piperazin-1-yl)methyl)-1-oxoisoindolin-2-yl)dihydropyrimidine-2,4(1H,3H)-dione] | A ("A" is defined as 0% ≤ substrate protein remaining % ≤ 80%) | A ("A" is defined as 0% ≤ substrate protein remaining % ≤ 80%) | A ("A" is defined as 0% ≤ substrate protein remaining % ≤ 80%) | A ("A" is defined as 0% ≤ substrate protein remaining % ≤ 80%) | A ("A" is defined as 0% ≤ substrate protein remaining % ≤ 80%) | A ("A" is defined as 0% ≤ substrate protein remaining % ≤ 80%) |
| O=C1CCN(N2C(=O)c3ccc(CN4CCC(c5ccc(F)cc5)CC4)cc3C2=O)C(=O)N1 [GT-06878, 2-(2,4-dioxotetrahydropyrimidin-1(2H)-yl)-5-((4-(4-fluorophenyl)piperidin-1-yl)methyl)isoindoline-1,3-dione] | B ("B" is defined as 80%< substrate protein remaining %≤ 100%) | B ("B" is defined as 80%< substrate protein remaining %≤ 100%) | B ("B" is defined as 80%< substrate protein remaining %≤ 100%) | B ("B" is defined as 80%< substrate protein remaining %≤ 100%) | A ("A" is defined as 0% ≤ substrate protein remaining % ≤ 80%) | A ("A" is defined as 0% ≤ substrate protein remaining % ≤ 80%) |
| O=C1CCN(N2C(=O)c3ccc(CN4CCN(c5cccc(Cl)c5Cl)CC4)cc3C2=O)C(=O)N1 [GT-04854, 5-((4-(2,3-dichlorophenyl)piperazin-1-yl)methyl)-2-(2,4-dioxotetrahydropyrimidin-1(2H)-yl)isoindoline-1,3-dione] | A ("A" is defined as 0% ≤ substrate protein remaining % ≤ 80%) | A ("A" is defined as 0% ≤ substrate protein remaining % ≤ 80%) | A ("A" is defined as 0% ≤ substrate protein remaining % ≤ 80%) | B ("B" is defined as 80%< substrate protein remaining %≤ 100%) | B ("B" is defined as 80%< substrate protein remaining %≤ 100%) | A ("A" is defined as 0% ≤ substrate protein remaining % ≤ 80%) |
| Cc1sc2ncnc(C3=CCN(Cc4ccc5c(c4)C(=O)N(N4CCC(=O)NC4=O)C5=O)CC3)c2c1C [GT-05273, 5-((4-(5,6-dimethylthieno[2,3-d]pyrimidin-4-yl)-3,6-dihydropyridin-1(2H)-yl)methyl)-2-(2,4-dioxotetrahydropyrimidin-1(2H)-yl)isoindoline-1,3-dione] | B ("B" is defined as 80%< substrate protein remaining %≤ 100%) | B ("B" is defined as 80%< substrate protein remaining %≤ 100%) | A ("A" is defined as 0% ≤ substrate protein remaining % ≤ 80%) | B ("B" is defined as 80%< substrate protein remaining %≤ 100%) | B ("B" is defined as 80%< substrate protein remaining %≤ 100%) | B ("B" is defined as 80%< substrate protein remaining %≤ 100%) |
| O=C1CCN(N2C(=O)c3ccc(CN4CCN(C(c5ccc(Cl)cc5)c5ccc(Cl)cc5)CC4)cc3C2=O)C(=O)N1 [GT-05269, 5-((4-(bis(4-chlorophenyl)methyl)piperazin-1-yl)methyl)-2-(2,4-dioxotetrahydropyrimidin-1(2H)-yl)isoindoline-1,3-dione] | B ("B" is defined as 80%< substrate protein remaining %≤ 100%) | B ("B" is defined as 80%< substrate protein remaining %≤ 100%) | B ("B" is defined as 80%< substrate protein remaining %≤ 100%) | B ("B" is defined as 80%< substrate protein remaining %≤ 100%) | A ("A" is defined as 0% ≤ substrate protein remaining % ≤ 80%) | A ("A" is defined as 0% ≤ substrate protein remaining % ≤ 80%) |
| C[C@@H]1CN(C(c2ccccc2)c2ccccc2)CCN1Cc1ccc2c(c1)C(=O)N(N1CCC(=O)NC1=O)C2=O [GT-06449, (R)-5-((4-benzhydryl-2-methylpiperazin-1-yl)methyl)-2-(2,4-dioxotetrahydropyrimidin-1(2H)-yl)isoindoline-1,3-dione] | B ("B" is defined as 80%< substrate protein remaining %≤ 100%) | B ("B" is defined as 80%< substrate protein remaining %≤ 100%) | A ("A" is defined as 0% ≤ substrate protein remaining % ≤ 80%) | A ("A" is defined as 0% ≤ substrate protein remaining % ≤ 80%) | B ("B" is defined as 80%< substrate protein remaining %≤ 100%) | A ("A" is defined as 0% ≤ substrate protein remaining % ≤ 80%) |
| O=C1CCN(N2C(=O)c3ccc(CN4CCN(c5ccccc5Cl)CC4)cc3C2=O)C(=O)N1 [GT-06726, 5-((4-(2-chlorophenyl)piperazin-1-yl)methyl)-2-(2,4-dioxotetrahydropyrimidin-1(2H)-yl)isoindoline-1,3-dione] | A ("A" is defined as 0% ≤ substrate protein remaining % ≤ 80%) | B ("B" is defined as 80%< substrate protein remaining %≤ 100%) | A ("A" is defined as 0% ≤ substrate protein remaining % ≤ 80%) | A ("A" is defined as 0% ≤ substrate protein remaining % ≤ 80%) | A ("A" is defined as 0% ≤ substrate protein remaining % ≤ 80%) | B ("B" is defined as 80%< substrate protein remaining %≤ 100%) |
| Cc1ccccc1N1CCN(Cc2ccc3c(c2)CN(N2CCC(=O)NC2=O)C3=O)CC1 [GT-06769, 1-(1-oxo-5-((4-(o-tolyl)piperazin-1-yl)methyl)isoindolin-2-yl)dihydropyrimidine-2,4(1H,3H)-dione] | A ("A" is defined as 0% ≤ substrate protein remaining % ≤ 80%) | B ("B" is defined as 80%< substrate protein remaining %≤ 100%) | A ("A" is defined as 0% ≤ substrate protein remaining % ≤ 80%) | A ("A" is defined as 0% ≤ substrate protein remaining % ≤ 80%) | A ("A" is defined as 0% ≤ substrate protein remaining % ≤ 80%) | A ("A" is defined as 0% ≤ substrate protein remaining % ≤ 80%) |
| Cc1cc(N2CCN(Cc3ccc4c(c3)C(=O)N(N3CCC(=O)NC3=O)C4=O)CC2)ccn1 [GT-07161, 2-(2,4-dioxotetrahydropyrimidin-1(2H)-yl)-5-((4-(2-methylpyridin-4-yl)piperazin-1-yl)methyl)isoindoline-1,3-dione] | B ("B" is defined as 80%< substrate protein remaining %≤ 100%) | B ("B" is defined as 80%< substrate protein remaining %≤ 100%) | A ("A" is defined as 0% ≤ substrate protein remaining % ≤ 80%) | B ("B" is defined as 80%< substrate protein remaining %≤ 100%) | B ("B" is defined as 80%< substrate protein remaining %≤ 100%) | A ("A" is defined as 0% ≤ substrate protein remaining % ≤ 80%) |
| O=C1CCN(N2Cc3cc(CN4CCN(c5ncccc5F)CC4)ccc3C2=O)C(=O)N1 [GT-05129, 1-(5-((4-(3-fluoropyridin-2-yl)piperazin-1-yl)methyl)-1-oxoisoindolin-2-yl)dihydropyrimidine-2,4(1H,3H)-dione] | A ("A" is defined as 0% ≤ substrate protein remaining % ≤ 80%) | A ("A" is defined as 0% ≤ substrate protein remaining % ≤ 80%) | A ("A" is defined as 0% ≤ substrate protein remaining % ≤ 80%) | A ("A" is defined as 0% ≤ substrate protein remaining % ≤ 80%) | A ("A" is defined as 0% ≤ substrate protein remaining % ≤ 80%) | A ("A" is defined as 0% ≤ substrate protein remaining % ≤ 80%) |
| O=C1CCN(N2C(=O)c3ccc(CN4CCN(c5ccc(Cl)nc5)CC4)cc3C2=O)C(=O)N1 [GT-07027, 5-((4-(6-chloropyridin-3-yl)piperazin-1-yl)methyl)-2-(2,4-dioxotetrahydropyrimidin-1(2H)-yl)isoindoline-1,3-dione] | A ("A" is defined as 0% ≤ substrate protein remaining % ≤ 80%) | B ("B" is defined as 80%< substrate protein remaining %≤ 100%) | B ("B" is defined as 80%< substrate protein remaining %≤ 100%) | B ("B" is defined as 80%< substrate protein remaining %≤ 100%) | B ("B" is defined as 80%< substrate protein remaining %≤ 100%) | A ("A" is defined as 0% ≤ substrate protein remaining % ≤ 80%) |
